Patent US4454128A, “6α-Methoxy-penicillins” (Dr. Karl Thomae GmbH, priority 1981, dated 1984)
Converted amounts (≈) assume the structure as drawn. Where two headings read alike, the source gives them in different places.

What was measured:
Proteus Mirabilis BC 17 = test: In vitro MIC, series dilution test in microtiter system; assay type: cell-based; conditions: Prot. mir. BC 17, 18 to 20 hours at 37° C., read-out: minimum inhibitory concentration (MIC)
Description: (§1) For the tests, the method of the series dilution test in the microtiter system was used. The substances were tested for bacteriostasis in a liquid medium. The bacteriostatic activity was tested at the following concentration: 128; 64; 32; 16; 8; 4; 2; 1; 0.5; 0.25; 0.12; 0.06 μg/ml.
(§2) A nutrient medium having the following composition was used: 10 gm of peptone, 8 gm of meat extract oxoid, 3 gm of sodium chloride, 2 gm of sec. sodium phosphate are made up to […] with distilled water (pH 7.2 to 7.4). The age of the primary cultures was about 20 hours.
(§3) The bacterial suspension was adjusted, using the photometer (according to "Eppendorf") (test tube diameter 14 mm, filter 546 nm) by reference to the turbidity of a barium sulfate comparison suspension which was produced by a barium sulfate suspension formed by the addition of 3.0 ml of 1% barium chloride solution to 97 ml of 1% sulfuric acid. After adjustment, Streptococcus aronson was diluted in the ratio 1:15 and the other test pathogens were diluted in the ratio 1:1500 with a common salt solution.
(§4) 16 mg of the test substance were weighed in 10 ml measuring flasks and solvent was added up to the mark. Further dilutions in the series were made with distilled water or the solvent in question.
(§5) The depressions in the microtiter plates were filled with 0.2 ml of nutrient medium, 0.01 ml of the corresponding diluted substance and a drop of bacterial suspension (0.01 ml), and incubated for 18 to 20 hours at 37° C. A solvent check was carried out continuously at the same time.
(§6) The reading was taken macroscopically, and the respective limiting concentration (=the lower concentration still having bateriostatic activity) was determined.
(§7) The following were used as test organisms:
(§8) Escherichia coli ATCC 11 775, Serratia marcescens ATCC 13 880, Klebsiella pneumoniae ATCC 10 031 and BC 6, Proteus Mirabilis BC 17, Proteus rettgeri BC 7, Enterobacter cloacae ATCC 13 047, E. coli R^+ TEM(β-lactamase carrier) and K. pneumoniae 1088 E (β-lactamase carrier).
(§9) Table 1 which follows lists the minimum inhibitory concentrations (MIC) determined for typical representatives of the compounds according to the invention. These are the sodium salts of compounds of the formula I, where A=p-hydroxyphenyl and R is defined as follows: […]

Proteus rettgeri BC 7 = test: as above; assay type: cell-based; conditions: Providencia rettgeri, BC7; Prot. rettg. BC 7; 18 to 20 hours at 37° C.; read-out: minimum inhibitory concentration (MIC)
Description: as §1, §2, §3, §4, §5, §6, §7, §8, §9

[1] = system: Klebsiella pneumoniae BC 6; test: as above; assay type: cell-based; conditions: BC6, K. pneum. BC 6, 18 to 20 hours at 37° C., read-out: minimum inhibitory concentration (MIC)
Description: as §1, §2, §3, §4, §5, §6, §7, §8, §9

[2] = system: E. coli R^+ TEM(β-lactamase carrier); test: as above; assay type: cell-based; conditions: Escherichia coli, read-out: minimum inhibitory concentration (MIC)
Description: as §1, §2, §3, §4, §5, §6, §7, §8, §9

[3] = system: Serratia marcescens ATCC 13 880; test: as above; assay type: cell-based; conditions: Serr. marc. ATCC 13880, 18 to 20 hours at 37° C., read-out: minimum inhibitory concentration (MIC)
Description: as §1, §2, §3, §4, §5, §6, §7, §8, §9

[4] = system: Klebsiella pneumoniae ATCC 10 031; test: as above; assay type: cell-based; conditions: K. pneum. ATCC 10031, 18 to 20 hours at 37° C., read-out: minimum inhibitory concentration (MIC)
Description: as §1, §2, §3, §4, §5, §6, §7, §8, §9

[5] = system: Escherichia coli ATCC 11 775; test: as above; assay type: cell-based; conditions: E. coli ATCC 11775, 18 to 20 hours at 37° C., read-out: minimum inhibitory concentration (MIC)
Description: as §1, §2, §3, §4, §5, §6, §7, §8, §9

[6] = system: Enterobacter cloacae ATCC 13 047; test: as above; assay type: cell-based; conditions: Eb. cloac. ATCC 13047, 18 to 20 hours at 37° C., read-out: minimum inhibitory concentration (MIC)
Description: as §1, §2, §3, §4, §5, §6, §7, §8, §9

[7] = system: K. pneumoniae 1088 E (β-lactamase carrier); test: as above; assay type: cell-based; conditions: Klebsiella pneumoniae, K. pneum. 1088 E, 18 to 20 hours at 37° C., read-out: minimum inhibitory concentration (MIC)
Description: as §1, §2, §3, §4, §5, §6, §7, §8, §9

[8] = system: 20 Serratia marcescens carrying β-lactamase; test: In vitro activity against 20 Serratia marcescens carrying β-lactamase, compared with Temocillin; assay type: cell-based; conditions: Serr. marc. (20)
Description: as §1, §2, §3, §4, §5, §6

E. coli ATCC 11775 = test: In vivo test on experimental E. coli infection in mice; set-up: species or system E. coli; female mice of the NMRI strain; conditions: Escherichia coli, ATCC11775, sc, 168 h, subcutaneous, one treatment 1 hour post infectionem, observation period 7 days, read-out: ED50 (dose at which 50% of the animals survived)
Description: A number of the compounds according to the invention were tested in vivo on experimental infections in mice. E. coli ATCC 11775 were used as the pathogenic bacteria. An intraperitoneal infection was produced with 0.2 ml of a 5% mucin suspension of the bacteria. This corresponds to about 1.4×10^6 E. coli bacteria per mouse. Female mice of the NMRI strain were divided up into groups of 10 animals, two groups were untreated, the other groups were treated subcutaneously with various doses of the penicillin according to the invention, to determine the ED50 (dose at which 50% of the animals survived). One treatment was given (1 hour post infectionem).
In both cases, the observation period was 7 days. The results of these tests with 2 representatives of the penicillins according to the invention, compared with Temocillin, are shown in Table 3 which follows: […]

[9] = inoculum 5 × 10^4, read-out: Geometric Mean (MIC)
[10] = inoculum 5 × 10^4, read-out: MIC Range
[11] = inoculum 5 × 10^6, read-out: Geometric Mean (MIC)

Structure (SMILES) | MIC (Proteus Mirabilis BC 17) [µg/mL] | MIC (Proteus rettgeri BC 7) [µg/mL] | MIC [1] [µg/mL] | MIC [2] [µg/mL] | MIC [3] [µg/mL] | MIC [4] [µg/mL] | MIC [5] [µg/mL] | MIC [6] [µg/mL] | MIC [7] [µg/mL] | MIC [8, 9] [µg/mL] | MIC [8, 10] [µg/mL] | MIC [8, 11] [µg/mL] | ED50 (E. coli ATCC 11775) [mg/kg] | MIC ([8]; inoculum 5 × 10^6, read-out: MIC Range) [µg/mL]
CO[C@@]1(NC(=O)C(NC(=O)Nc2cnc(NCc3ccc(S(N)(=O)=O)s3)nc2O)c2ccc(O)cc2)C(=O)N2[C@@H](C(=O)O)C(C)(C)S[C@@H]21 (stereo partly drawn) [C] | 0.12 (≈ 0.166 µM) | 2 (≈ 2.77 µM) | 1 (≈ 1.38 µM) | 2 (≈ 2.77 µM) | 2 (≈ 2.77 µM) | 1 (≈ 1.38 µM) | 1 (≈ 1.38 µM) | 1 (≈ 1.38 µM) | 8 (≈ 11.1 µM) | – | – | – | – | –
CO[C@@]1(NC(=O)C(C(=O)O)c2ccsc2)C(=O)N2[C@@H](C(=O)O)C(C)(C)S[C@@H]21 (stereo partly drawn) [Compound E, Temocillin, reference compound] | 2 (≈ 4.83 µM) | 4 (≈ 9.65 µM) | 2 (≈ 4.83 µM) | 8 (≈ 19.3 µM) | 8 (≈ 19.3 µM) | 4 (≈ 9.65 µM) | 4 (≈ 9.65 µM) | 4 (≈ 9.65 µM) | 4 (≈ 9.65 µM) | 10.2 (≈ 24.6 µM) | 8 to 16 (≈ 19.3 to 38.6 µM) | 24.3 (≈ 58.6 µM) | > 20 | –
CO[C@@]1(NC(=O)C(NC(=O)Nc2cnc(Nc3ccc(S(N)(=O)=O)cc3)nc2O)c2ccc(O)cc2)C(=O)N2[C@@H](C(=O)O)C(C)(C)S[C@@H]21 (stereo partly drawn) [A] | 1 (≈ 1.42 µM) | 2 (≈ 2.85 µM) | 1 (≈ 1.42 µM) | 1 (≈ 1.42 µM) | 1 (≈ 1.42 µM) | 1 (≈ 1.42 µM) | 1 (≈ 1.42 µM) | 1 (≈ 1.42 µM) | 4 (≈ 5.69 µM) | 2.8 (≈ 3.98 µM) | 2 to 8 (≈ 2.85 to 11.4 µM) | 10.2 (≈ 14.5 µM) | 4 | 4 to 32 (≈ 5.69 to 45.5 µM)
CO[C@@]1(NC(=O)C(NC(=O)Nc2cnc(NCc3ccc(S(N)(=O)=O)cc3)nc2O)c2ccc(O)cc2)C(=O)N2[C@@H](C(=O)O)C(C)(C)S[C@@H]21 (stereo partly drawn) [D] | 0.5 (≈ 0.698 µM) | 4 (≈ 5.58 µM) | 1 (≈ 1.4 µM) | 2 (≈ 2.79 µM) | 2 (≈ 2.79 µM) | 1 (≈ 1.4 µM) | 2 (≈ 2.79 µM) | 1 (≈ 1.4 µM) | 8 (≈ 11.2 µM) | – | – | – | – | –
